Measured values taken from ChEMBL document CHEMBL4431375, “Stereochemistry Balances Cell Permeability and Solubility in the Naturally Derived Phepropeptin Cyclic Peptides” (ACS Med Chem Lett, 2016).
≈ marks a conversion by molar mass, not a printed value.

How the values were obtained:
[1] = Thermodynamic aqueous solubility of the compound at 2 mM and pH 7.4 measured after 20 hrs by HPLC analysis; assay type: physicochemical; details: aqueous medium, read-out: Therm_solubility
[2] = Metabolic stability in human plasma assessed as compound degradation at 2 uM measured after 30 mins by LC-ESI/MS analysis; assay type: ADME, cell-free; details: 0.5 h
[3] = Octanol-water partition coefficient, log D of the compound at pH 7.4 by shake flask method; assay type: physicochemical
[4] = Apparent passive permeability in MDCK cells expressing MDR1 (unknown origin) at 5 uM measured after 60 mins by LC-MS/MS analysis; assay type: ADME, cell-based, Canis lupus familiaris; details: dog

| solubility thermodynamic at 20 h, 2000 µM [1] | Stability [2] | logD [3] | Papp at 1 h, 5 µM [4] | SMILES |
| --- | --- | --- | --- | --- |
| 170 µg/mL (≈ 249 µM) | Stable | 2.08 | 33 ×10⁻⁶ cm/s | CC(C)C[C@@H]1NC(=O)[C@H](C(C)C)NC(=O)[C@@H](CC(C)C)NC(=O)[C@H](CC(C)C)NC(=O)[C@@H]2CCCN2C(=O)[C@@H](Cc2ccccc2)NC1=O |
| 60 µg/mL (≈ 86.1 µM) | Stable | 2.63 | 40 ×10⁻⁶ cm/s | CC[C@H](C)[C@@H]1NC(=O)[C@@H](CC(C)C)NC(=O)[C@H](CC(C)C)NC(=O)[C@@H]2CCCN2C(=O)[C@@H](Cc2ccccc2)NC(=O)[C@H](CC(C)C)NC1=O |
| 150 µg/mL (≈ 220 µM) | Stable | 2.37 | 8 ×10⁻⁶ cm/s | CC(C)C[C@@H]1NC(=O)[C@H](C(C)C)NC(=O)[C@@H](CC(C)C)NC(=O)[C@H](CC(C)C)NC(=O)[C@H]2CCCN2C(=O)[C@@H](Cc2ccccc2)NC1=O |
| 70 µg/mL (≈ 100 µM) | Stable | 2.39 | 15 ×10⁻⁶ cm/s | CC[C@H](C)[C@@H]1NC(=O)[C@@H](CC(C)C)NC(=O)[C@H](CC(C)C)NC(=O)[C@H]2CCCN2C(=O)[C@@H](Cc2ccccc2)NC(=O)[C@H](CC(C)C)NC1=O |
| 10 µg/mL (≈ 13.7 µM) | Stable | – | 40 ×10⁻⁶ cm/s | CC[C@H](C)[C@@H]1NC(=O)[C@@H](CC(C)C)NC(=O)[C@H](Cc2ccccc2)NC(=O)[C@@H]2CCCN2C(=O)[C@@H](Cc2ccccc2)NC(=O)[C@H](CC(C)C)NC1=O |
| 30 µg/mL (≈ 41 µM) | Stable | – | 18 ×10⁻⁶ cm/s | CC[C@H](C)[C@@H]1NC(=O)[C@@H](CC(C)C)NC(=O)[C@H](Cc2ccccc2)NC(=O)[C@H]2CCCN2C(=O)[C@@H](Cc2ccccc2)NC(=O)[C@H](CC(C)C)NC1=O |
| 70 µg/mL (≈ 97.6 µM) | Stable | 2.41 | 11 ×10⁻⁶ cm/s | CC(C)C[C@@H]1NC(=O)[C@H](C(C)C)NC(=O)[C@@H](CC(C)C)NC(=O)[C@H](Cc2ccccc2)NC(=O)[C@H]2CCCN2C(=O)[C@@H](Cc2ccccc2)NC1=O |
| 50 µg/mL (≈ 69.7 µM) | Stable | 2.33 | 39 ×10⁻⁶ cm/s | CC(C)C[C@@H]1NC(=O)[C@H](C(C)C)NC(=O)[C@@H](CC(C)C)NC(=O)[C@H](Cc2ccccc2)NC(=O)[C@@H]2CCCN2C(=O)[C@@H](Cc2ccccc2)NC1=O |
